From patent US8642622B2, “Piperidinyl compound as a modulator of chemokine receptor activity” (Bristol-Myers Squibb Company, priority 2010, dated 2014)

Key:
[1] = target: T1, human cardiac sodium channel, SCNSA (Homo sapiens, UniProt Q14524); test: Sodium channel whole-cell patch-clamp assay; type: cell-based; conditions: HEK293, HEK-293, protein-free buffer, read-out: Na channel, % inh
T1 construct: expressed in transfected cells; host or cells: HEK-293
Method: Whole-cell patch-clamp was used to directly measure inward sodium currents in HEK-293 cells expressing the human cardiac sodium channel, SCNSA. After reach steady-state effect in the presence of drug, rate-dependence was assessed by stimulation at frequencies of 1 Hz and 4 Hz. Experiments were carried out using an aqueous buffer at pH 7.4 and at room temperature. There is no protein in the buffer and drug concentrations reported are nominal free drug levels. Test article was evaluated up to 10 μM (protein-free buffer). […] Data is reported as percent inhibition at a fixed concentration.

[2] = Electrocardiography in anesthetized rabbits (rabbit in vivo EP effect)
Method: A dose-response study of test compound was conducted in anesthetized rabbits to assess the cardiac electrophysiologic profile established in the cellular ion channel assays.
Experiments were performed in propofol-fentanyl anesthetized closed-chest male rabbits. A body surface electrocardiogram (ECG) and an intra-cardiac His-bundle electrogram were continuously monitored and recorded during the studies, using a PoNeMah system and a Prucka electrophysiological recording system, respectively. Test compound was prepared on the day of study in a vehicle of PEG400:ethanol:water (1:1:1) at a dosing concentration of 30 mg/mL. Test compound (n=3) or vehicle (n=3) was given intravenously over 5 minutes via an infusion pump at incremental doses of 3, 10 and 30 mg/kg. The interval between doses was 10 minutes, allowing for a 5-minute test agent infusion and a 5-minute rest period. Blood was sampled at baseline (pre-drug infusion) and immediately at the end of each infusion. For the 30 mg/kg dose, additional blood samples were taken at 10, 20 and 30 minutes after the end of infusion.
PR interval, QRS duration and QT interval were averaged from a 1 minute ECG recording period at time of blood sampling. QT interval was corrected for heart rate effects using both Fridericia (QTcf) and Van der Water (QTcv) formulae. AH and HV intervals, representing A-V node conduction and His-Purkinje conduction, respectively, were assessed by manual measurements from the His-bundle electrogram. Data were expressed as percent change from pre-drug baseline (mean±SEM) for PR, QRS, AH and HV intervals as well as delta change from the pre-drug infusion baseline (mean±SEM) for QTc intervals. Changes of 10% in PR, QRS, and AH intervals, and 20% in HV interval, as well as >10 ms in QTc interval are considered significant based on experience with the model.

[3] = Single-dose pharmacokinetics in dogs; type: in vivo; conditions: male, beagle, dog, plasma
Method: Serial blood samples were collected for all studies at various time points post dose (0.17 (or 0.25 for oral), 0.5, 0.75, 1, 2, 4, 6, 8 and 24 h, for example). Plasma samples were analyzed by LC-MS/MS.

[4] = Single-dose pharmacokinetics in rats; type: in vivo; conditions: male, Sprague-Dawley, rat, plasma; for bioavailability: po
Method: Serial blood samples were collected for all studies from the jugular vein at various time points post dose (0.17 (or 0.25 for oral), 0.5, 0.75, 1, 2, 4, 6, 8 and 24 h, for example). Plasma samples were analyzed by LC-MS/MS.
Additional studies evaluating suspensions of crystalline drug substance in aqueous medium were performed as described above.

T1 sequence (Q14524 whole entry): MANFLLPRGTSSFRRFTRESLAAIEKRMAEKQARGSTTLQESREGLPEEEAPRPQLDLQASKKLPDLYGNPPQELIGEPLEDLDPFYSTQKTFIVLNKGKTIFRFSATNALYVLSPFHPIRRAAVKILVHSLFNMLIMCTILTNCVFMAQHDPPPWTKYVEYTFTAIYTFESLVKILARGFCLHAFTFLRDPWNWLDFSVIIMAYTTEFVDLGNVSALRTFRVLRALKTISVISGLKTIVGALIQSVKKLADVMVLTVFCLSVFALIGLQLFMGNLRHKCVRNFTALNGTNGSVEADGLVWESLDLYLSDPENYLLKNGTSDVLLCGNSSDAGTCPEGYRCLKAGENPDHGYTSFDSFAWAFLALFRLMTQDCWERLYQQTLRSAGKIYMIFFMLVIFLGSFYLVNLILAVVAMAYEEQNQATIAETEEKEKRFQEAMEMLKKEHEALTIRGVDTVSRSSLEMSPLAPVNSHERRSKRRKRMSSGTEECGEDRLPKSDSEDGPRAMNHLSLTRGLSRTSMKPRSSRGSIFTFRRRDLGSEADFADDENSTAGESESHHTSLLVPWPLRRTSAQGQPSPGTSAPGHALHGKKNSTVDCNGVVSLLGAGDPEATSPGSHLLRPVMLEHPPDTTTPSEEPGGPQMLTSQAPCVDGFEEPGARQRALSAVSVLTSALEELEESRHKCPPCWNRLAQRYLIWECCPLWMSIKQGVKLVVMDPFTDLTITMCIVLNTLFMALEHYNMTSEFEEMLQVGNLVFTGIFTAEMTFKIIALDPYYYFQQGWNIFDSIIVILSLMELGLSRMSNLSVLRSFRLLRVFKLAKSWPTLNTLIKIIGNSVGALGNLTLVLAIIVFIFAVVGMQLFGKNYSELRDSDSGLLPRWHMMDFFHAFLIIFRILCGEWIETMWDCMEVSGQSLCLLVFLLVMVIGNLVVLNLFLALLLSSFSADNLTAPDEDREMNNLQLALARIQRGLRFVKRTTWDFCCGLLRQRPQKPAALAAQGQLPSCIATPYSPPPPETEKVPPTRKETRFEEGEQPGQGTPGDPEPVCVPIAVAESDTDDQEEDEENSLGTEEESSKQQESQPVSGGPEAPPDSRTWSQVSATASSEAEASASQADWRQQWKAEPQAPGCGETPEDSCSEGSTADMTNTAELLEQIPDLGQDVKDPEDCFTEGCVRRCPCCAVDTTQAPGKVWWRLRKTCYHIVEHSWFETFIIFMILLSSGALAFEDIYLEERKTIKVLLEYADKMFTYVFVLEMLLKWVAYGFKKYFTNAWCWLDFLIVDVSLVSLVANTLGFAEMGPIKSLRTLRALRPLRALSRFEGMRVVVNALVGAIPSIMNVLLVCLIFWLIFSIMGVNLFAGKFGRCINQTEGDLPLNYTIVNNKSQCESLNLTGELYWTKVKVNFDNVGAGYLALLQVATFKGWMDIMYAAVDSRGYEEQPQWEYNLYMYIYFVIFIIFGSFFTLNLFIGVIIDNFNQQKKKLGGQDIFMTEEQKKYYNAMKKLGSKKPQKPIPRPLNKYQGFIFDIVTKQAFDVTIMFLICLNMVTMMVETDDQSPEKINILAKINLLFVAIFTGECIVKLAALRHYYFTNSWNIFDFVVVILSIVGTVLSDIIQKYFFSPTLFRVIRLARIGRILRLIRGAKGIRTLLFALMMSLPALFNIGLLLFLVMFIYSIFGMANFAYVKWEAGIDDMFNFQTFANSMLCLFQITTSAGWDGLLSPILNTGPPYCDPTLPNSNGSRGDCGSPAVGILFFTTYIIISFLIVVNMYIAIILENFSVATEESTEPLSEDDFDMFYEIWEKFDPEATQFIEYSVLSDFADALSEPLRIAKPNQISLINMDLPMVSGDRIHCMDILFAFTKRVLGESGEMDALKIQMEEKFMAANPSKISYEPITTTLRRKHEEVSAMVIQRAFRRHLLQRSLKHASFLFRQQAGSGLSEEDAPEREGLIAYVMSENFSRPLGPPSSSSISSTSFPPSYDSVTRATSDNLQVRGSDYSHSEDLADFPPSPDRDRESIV

CC(C)[C@@H](NC(=O)c1cccc(S(N)(=O)=O)c1)C(=O)N1CC[C@](O)(c2ccc(Cl)cc2)C(C)(C)C1 [Example 491]
inhibition at 10 µM [1]: 13% | Cmax: Free drug (at NOEL dose) ([2]; at NOEL dose, free drug): 3.1 µM | Cmax: Free drug (at QT effect dose) ([2]; at QT effect dose, free drug): 5.5 µM | NOEL dose ([2]; i.v. infusion): 10 mg/kg | QT effect Dose ([2]; i.v. infusion 3, 10, 30 mg/kg): 30 mg/kg | QTcf, delta ([2]; i.v. infusion, change from pre-drug baseline): +17 ms | clearance ([3]; intravenous): 7.9 mL/min/kg | bioavailability ([3]; oral solution, read-out: dog oral bioavailability when dosed as solution): 100% | clearance ([4]; intravenous): 67 mL/min/kg | bioavailability ([4]; crystalline suspension in aqueous medium, read-out: Relative bioavailability when dosed as a crystalline suspension): 0% | bioavailability ([4]; oral solution, read-out: Rat oral bioavailability when dosed as solution): 23%
